Where “and” joins values, the source holds several entries; their conditions need not be identical. Equal values may be shown once.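 Step 1: Grow cells in 96-well plates. Step 2: Expose to compound for 48 hours at 5 concentrations. Step 3: Interpolate endpoints linearly; if unreached, use highest concentration. GI50 marks 50% less growth. Definition used: TGI = concentration required for complete inhibition of growth.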
How the values were obtained:
Assay in all cases: inhibition of tumour cell growth, NCI panel, 48 h
UACC-257 melanoma = tested on: UACC-257 melanoma
HCT-116 colon = tested on: HCT-116 colon
KM12 colon = tested on: KM12 colon
UACC-62 melanoma = tested on: UACC-62 melanoma
OVCAR-3 ovarian = tested on: OVCAR-3 ovarian
SN12C renal = tested on: SN12C renal
PC-3 prostate = tested on: PC-3 prostate
HOP-62 NSCLC = tested on: HOP-62 NSCLC
M14 melanoma = tested on: M14 melanoma
MDA-MB-231 breast = tested on: MDA-MB-231 breast
SK-OV-3 ovarian = tested on: SK-OV-3 ovarian

SMILES	TGI (UACC-257 melanoma) [µM]	TGI (HCT-116 colon) [µM]	TGI (KM12 colon)	TGI (UACC-62 melanoma)	TGI (OVCAR-3 ovarian) [µM]	TGI (SN12C renal) [µM]	TGI (PC-3 prostate) [µM]	TGI (HOP-62 NSCLC) [µM]	TGI (M14 melanoma) [µM]	TGI (MDA-MB-231 breast) [µM]	TGI (SK-OV-3 ovarian) [µM]	GI50 (HCT-116 colon) [µM]	GI50 (KM12 colon) [µM]	GI50 (UACC-62 melanoma) [µM]	GI50 (OVCAR-3 ovarian) [µM]	GI50 (SN12C renal) [µM]	GI50 (HOP-62 NSCLC) [µM]	GI50 (M14 melanoma) [µM]	GI50 (SK-OV-3 ovarian) [µM]
CCn1c2ccccc2c2cc(NC(=O)c3c(C)[nH]c(=O)[nH]c3=S)ccc21	> 100	> 100	64.5 µM	> 100 µM	> 100	> 100	> 100	> 100	82.2	58.1	> 100								
COc1cccc(C2c3cc4c(cc3OC(N3CCOCC3)C2C)OCO4)c1 (centres undefined)	> 100	34.9			38.6	> 100	44.4	60.8	71	> 100	> 100								
COc1cccc2c1C(=O)c1c(O)c3c(c(O)c1C2=O)C[C@](O)(C(=O)CO)CC3OC1CC(N)C(OC2CCCCO2)C(C)O1 (some centres undefined)	2.5	2.49		1.11 µM	4.56	3.12		1.7			8.28								
CCC[CH2][Ge]([CH2]CCC)([CH2]CCC)[O]C(=O)CCl		13.3	15.9 µM	8.67 µM	16.3	19.3		9.23	6.94		20.6	0.498	1.4	1.07	2.33	1.46	1.89	1.25	5.2
O=C1/C(=C/c2ccc(Cl)c(Cl)c2)CN(C(=O)CCN2CCOCC2)C/C1=C\c1ccc(Cl)c(Cl)c1			0.137 µM and 1.27 µM and 0.326 µM	3.27 µM and 4.9 µM			0.0157			0.00591				1.92	1.08				
